Assay results taken from patent publication US20240148833A1, “COMPOSITION COMPRISING GLP-1 RECEPTOR AGONIST AND ACAT INHIBITOR” (EFIL BioScience Inc., priority 2022, published 2024).
Where two headings read alike, the source gives them in different places.

How the values were obtained:
[1] = Cohort 1: daily sc administration in morbidly obese DIO mice, body weight, food intake, organ weight; format: in vivo, male C57BL/6 mice; conditions: for mean body weight change, % of starting body weight: initial 4-week period (day 28), avasimibe 10 mg/kg BW, semaglutide 0.04 mg/kg BW, HF diet
Method: (§1) Cohort 1: The first set of animal study was conducted at Nonclinical Research Institute, ChemOn Inc., and experimental procedures were approved by Institutional Animal Care and Use Committee (serial number 2021-09-007). Eight-week-old male C57BL/6 mice were purchased (Orient Bio Inc., Republic of Korea). After 2-week acclimation, the mice were fed with high-fat (HF) diet (cat #: D12492, Research Diets Inc.) for 12 weeks to develop DIO. These mice were then randomly assigned to control, avasimibe, semaglutide, and combination groups. Avasimibe solution was prepared for making the final concentration of avasimibe at 10 mg/kg BW, as described in Y. Zhu, S. Q. Kim, Y. Zhang, Q. Liu, K. H. Kim, Pharmacological inhibition of acyl-coenzyme A:cholesterol acyltransferase alleviates obesity and insulin resistance in diet-induced obese mice by regulating food intake, Metabolism 123 (2021) 154861, which is incorporated herein by reference. Semaglutide stock solution prepared in DMSO (1 mg/ml) was diluted with PBS for the final concentration of 0.04 mg/kg BW. The drug solution or the vehicle solution at a volume of 10 μl/g BW was injected to the mice sc daily for the indicated days.
Cohort 1 mice were used to investigate whether combined treatment with semaglutide and a lower dose avasimibe compared to single semaglutide injection in morbidly obese mice (FIG. 1A). On the first day of the experiment, the average body weight of the mice was recorded as 48.84±2.26 grams (FIG. 1B). […] Mice in the vehicle control and avasimibe groups were sacrificed after additional 16 days of treatment (FIG. 1A). Throughout the initial 4-week period, the mean body weight of the vehicle-treated animals increased by 1.2% compared to their starting body weight. In contrast, the mean body weight changes for mice treated with avasimibe, semaglutide, or the combination of both drugs were −6.29%, −21.66%, and −30.47% of their starting body weight, respectively (FIG. 1C). […] Y. Zhu, S. Q. Kim, Y. Zhang, Q. Liu, K. H. Kim, Pharmacological inhibition of acyl-coenzyme A:cholesterol acyltransferase alleviates obesity and insulin resistance in diet-induced obese mice by regulating food intake, Metabolism 123 (2021) 154861, which is incorporated herein by reference. Consequently, we increased the avasimibe dose to 20 mg/kg BW in the subsequent study involving the second cohort of mice. […] However, as the treatment regimen continued, food intake gradually returned to baseline levels, and the effect of semaglutide diminished around day 26. […] To investigate potential toxic effects of the combination treatment on the liver, we measured plasma ALT and AST levels.

[2] = format: in vivo, male C57BL/6 mice; set-up: Plasma Cholesterol / Plasma CE (cholesteryl ester): unit not given here; conditions: mean±SEM, n=10
Method: as §1
Body composition (e.g., fat mass, lean mass, free water, and total water) changes were assessed right before sacrificing the second cohort of mice using EchoMRI (Echo Medical Systems). Blood samples were obtained after fasting for 3h, frozen and stored until analysis. Aspartate transaminase (AST), alanine aminotransferase (ALT), glucose, triglycerides (TG), high-density lipoprotein (HDL-C) and low-density lipoprotein cholesterol (LDL-C) were also measured (AU680 Chemistry Analyzer, Beckman Coulter). The levels of serum leptin (cat #: ab100718, Abcam) and insulin (cat #: ab277390, Abcam) were determined by enzyme-linked immunosorbent assay kit and cholesterol/CE (cat #: ab65359, Abcam) was determined by an enzymatic assay according to the manufacturers' instructions.

[3] = Cohort 2: sc administration every three days for 23 days in moderately obese DIO mice, body weight and food intake; format: in vivo, male C57BL/6 mice; conditions: for mean body weight loss, % of the starting body weight: sc every three days for 23 days, avasimibe 20 mg/kg BW, HF diet
Method: Cohort 2: The second set of animal experiments were conducted according to a protocol approved by the Purdue Animal Care and Use Committee (protocol number: 11129000347). Male C57BL/6 DIO mice were purchased from Jackson Laboratory. After 8-week HF diet feeding, mice were randomly assigned to the same groups as cohort 1: control, avasimibe, semaglutide, and combination groups. Avasimibe (20 mg/kg BW) and semaglutide (0.04 mg/kg BW) were prepared in the method used with regard to Cohort 1, and the drugs were sc injected every three days for 23 days. Mice were kept on a 12/12 h light/dark cycle in a humidity and temperature control facility with ad libitum access to food and water. To validate the impact of the combined treatment of semaglutide and avasimibe in DIO mice and to simulate a weekly semaglutide regimen for humans, we utilized Cohort 2 mice (FIG. 2A). On day 1, the average body weight of the mice was recorded as 37.37±3.58 grams. Throughout the treatment period, the mice in the vehicle group continued to gain weight, reaching an average body weight of 41.58±4.74 grams, representing a […] increase from the starting body weight (FIG. 2B). […] Specifically, the mean body weight losses were 0.82%, 8.56%, and 14.89% of the starting body weight for the mice treated with avasimibe, semaglutide, and the combination of both drugs, respectively (FIG. 2C).

[4] = Cohort 2: oral glucose tolerance test (OGTT); format: in vivo, male C57BL/6 mice; conditions: sc every three days, avasimibe 20 mg/kg BW; D-glucose 2 g/kg BW oral after 6 h fast
Method: (§2) Cohort 2: The second set of animal experiments were conducted according to a protocol approved by the Purdue Animal Care and Use Committee (protocol number: 11129000347). Male C57BL/6 DIO mice were purchased from Jackson Laboratory. After 8-week HF diet feeding, mice were randomly assigned to the same groups as cohort 1: control, avasimibe, semaglutide, and combination groups. Avasimibe (20 mg/kg BW) and semaglutide (0.04 mg/kg BW) were prepared in the method used with regard to Cohort 1, and the drugs were sc injected every three days for 23 days. Mice were kept on a 12/12 h light/dark cycle in a humidity and temperature control facility with ad libitum access to food and water. Mice were fasted for 6 hrs (07:00-13:00) prior to oral administration of D-glucose (2 g/kg BW). Tail blood samples were obtained before (at 0) and at 15, 30, 60, 90 and 120 minutes after glucose challenge for the measurement of blood glucose concentration using a CONTOUR® NEXT glucometer (Ascensia Diabetes Care, Parsippany, NJ, USA).

[5] = Cohort 2: histological measurement of adipocyte size in inguinal fat pad (H&E); format: in vivo, male C57BL/6 mice; conditions: sc every three days for 23 days
Method: as §2, with “water.” for “water. Mice were fasted for 6 hrs (07:00-13:00) prior to oral administration of D-glucose (2 g/kg BW). Tail blood samples were obtained before (at 0) and at 15, 30, 60, 90 and 120 minutes after glucose challenge for the measurement of blood glucose concentration using a CONTOUR® NEXT glucometer (Ascensia Diabetes Care, Parsippany, NJ, USA).”
During animal sacrifice, adipose tissues were rinsed with saline solution, fixed in 10% neutral formalin buffered solution, and embedded in paraffin. The tissues were then cut into […] sections and stained with hematoxylin and eosin (H&E) to measure cell size (˜100 cells/mouse) by ImageJ software (NIH).

[6] = daily intraperitoneal (ip) 20 mg/kg BW avasimibe for 14 day; cited from earlier work
[7] = Day 43, daily sc avasimibe 10 mg/kg BW
[8] = Day 29, daily sc semaglutide 0.04 mg/kg BW with or without avasimibe 10 mg/kg BW

CC(C)c1cc(C(C)C)c(CC(=O)NS(=O)(=O)Oc2c(C(C)C)cccc2C(C)C)c(C(C)C)c1 [Avasimibe, avasimibe]
mean body weight change, % of starting body weight ([1]; daily sc): −6.29%
Plasma Glucose [2, 7]: 139.7 ± 6.32 mg/dL
Plasma HDL [2, 7]: 35.13 ± 1.14 mg/dL
Plasma Insulin [2, 7]: 1.43 ± 0.29 mIU/mL
Plasma LDL [2, 7]: 7.14 ± 0.46 mg/dL
Plasma Leptin [2, 7]: 6.72 ± 1.40 pg/mL
Plasma TG (triglyceride) [2, 7]: 33.80 ± 2.09 mg/dL
mean body weight loss, % of the starting body weight ([3]; semaglutide 0.04 mg/kg BW): 0.82%
glucose tolerance in OGTT [4]: did not enhance glucose tolerance
percentage of large adipocytes (20,001-100,000 μm^2) compared to vehicle group [5]: lower percentage
percentage of small adipocytes (5,001-10,000 μm^2) compared to vehicle group [5]: significantly higher percentage
reduction in body weight [6]: 24%

semaglutide
day around which the effect on food intake diminished ([1]; daily sc semaglutide 0.04 mg/kg BW): ~26 days
mean body weight change, % of starting body weight ([1]; daily sc): −21.66%
food intake compared to vehicle or avasimibe alone ([1]; daily sc, early treatment period): rapid suppression of food intake
Plasma CE (cholesteryl ester) [2, 8]: 7.071 ± 0.240
Plasma Cholesterol [2, 8]: 8.055 ± 0.292
Plasma Glucose [2, 8]: 121.73 ± 6.26 mg/dL
Plasma HDL [2, 8]: 37.02 ± 1.14 mg/dL
Plasma Insulin [2, 8]: 0.41 ± 0.07 mIU/mL
Plasma LDL [2, 8]: 5.05 ± 0.60 mg/dL
Plasma Leptin [2, 8]: 2.99 ± 0.65 pg/mL
Plasma TG (triglyceride) [2, 8]: 21.60 ± 1.38 mg/dL
mean body weight loss, % of the starting body weight ([3]; semaglutide 0.04 mg/kg BW): 8.56%
time for food intake to recover after each administration ([3]; sc every three days, semaglutide 0.04 mg/kg BW): ≤ 48 h
food intake by day 22, versus vehicle group ([3]; sc every three days, by the seventh administration): surpass that of the vehicle group
percentage of large adipocytes (40,001-100,000 μm^2) compared to vehicle group [5]: lower percentage
